In ChEMBL document CHEMBL4665624, “Synthesis of 5-(4-(1H-phenanthro[9,10-d]imidazol-2-yl)benzylidene)thiazolidine-2,4-dione as promising DNA and serum albumin-binding agents and evaluation of antitumor activity” (Eur J Med Chem, 2019):

The compounds below were run on SNB-75 (assay: Antitumor activity against human SNB-75 cells assessed as cell growth inhibition at 10 uM incubated for 48 hrs by sulforhodamine B assay). Conditions: read-out: GI.
Format: functional

Compound | inhibition of growth at 10 µM [%]
O=C1c2ccccc2C(=O)c2c1ccc1[nH]c(-c3ccc(-c4nc5c6ccccc6c6ccccc6c5[nH]4)cc3)nc21 | 10

The compounds below were run on ACHN (assay: Antitumor activity against human ACHN cells assessed as cell growth inhibition at 10 uM incubated for 48 hrs by sulforhodamine B assay). Conditions: read-out: GI.
Format: functional

Compound | inhibition of growth at 10 µM [%]
O=C1c2ccccc2C(=O)c2c1ccc1[nH]c(-c3ccc(-c4nc5c6ccccc6c6ccccc6c5[nH]4)cc3)nc21 | < 10

These compounds were tested on RXF 393 (assay: Antitumor activity against human RXF 393 cells assessed as cell growth inhibition at 10 uM incubated for 48 hrs by sulforhodamine B assay). Conditions: read-out: GI.
Format: functional

Compound | inhibition of growth at 10 µM [%]
O=C1c2ccccc2C(=O)c2c1ccc1[nH]c(-c3ccc(-c4nc5c6ccccc6c6ccccc6c5[nH]4)cc3)nc21 | < 10

These compounds were tested on HL-60(TB) (assay: Antitumor activity against human HL-60(TB) cells assessed as cell growth inhibition at 10 uM incubated for 48 hrs by sulforhodamine B assay). Conditions: read-out: GI.
Format: functional

Compound | inhibition of growth at 10 µM [%]
O=C1c2ccccc2C(=O)c2c1ccc1[nH]c(-c3ccc(-c4nc5c6ccccc6c6ccccc6c5[nH]4)cc3)nc21 | < 10

These compounds were tested on UO-31 (assay: Antitumor activity against human UO-31 cells assessed as cell growth inhibition at 10 uM incubated for 48 hrs by sulforhodamine B assay). Conditions: read-out: GI.
Format: functional

Compound | inhibition of growth at 10 µM [%]
O=C1c2ccccc2C(=O)c2c1ccc1[nH]c(-c3ccc(-c4nc5c6ccccc6c6ccccc6c5[nH]4)cc3)nc21 | 22.6

Each compound was assayed on PC-3 (assay: Antitumor activity against human PC-3 cells assessed as cell growth inhibition at 10 uM incubated for 48 hrs by sulforhodamine B assay). Conditions: read-out: GI.
Format: functional

Compound | inhibition of growth at 10 µM [%]
O=C1c2ccccc2C(=O)c2c1ccc1[nH]c(-c3ccc(-c4nc5c6ccccc6c6ccccc6c5[nH]4)cc3)nc21 | < 10

What follows are compounds tested on SW-620 (assay: Antitumor activity against human SW620 cells assessed as cell growth inhibition at 10 uM incubated for 48 hrs by sulforhodamine B assay). Conditions: SW-620, 48 h, read-out: GI.

Compound | inhibition of growth at 10 µM [%]
O=C1c2ccccc2C(=O)c2c1ccc1[nH]c(-c3ccc(-c4nc5c6ccccc6c6ccccc6c5[nH]4)cc3)nc21 | < 10

Each compound was assayed on A498 (assay: Antitumor activity against human A498 cells assessed as cell growth inhibition at 10 uM incubated for 48 hrs by sulforhodamine B assay). Conditions: read-out: GI.
Format: functional

Compound | inhibition of growth at 10 µM [%]
O=C1c2ccccc2C(=O)c2c1ccc1[nH]c(-c3ccc(-c4nc5c6ccccc6c6ccccc6c5[nH]4)cc3)nc21 | < 10

The compounds below were run on NCI-H460 (assay: Antitumor activity against human NCI-H460 assessed as cell growth inhibition at 10 uM incubated for 48 hrs by sulforhodamine B assay). Conditions: read-out: GI.
Format: functional

Compound | inhibition of growth at 10 µM [%]
O=C1c2ccccc2C(=O)c2c1ccc1[nH]c(-c3ccc(-c4nc5c6ccccc6c6ccccc6c5[nH]4)cc3)nc21 | < 10

The compounds below were run on NCI-H23 (assay: Antitumor activity against human NCI-H23 cells assessed as cell growth inhibition at 10 uM incubated for 48 hrs by sulforhodamine B assay). Conditions: read-out: GI.
Format: functional

Compound | inhibition of growth at 10 µM [%]
O=C1c2ccccc2C(=O)c2c1ccc1[nH]c(-c3ccc(-c4nc5c6ccccc6c6ccccc6c5[nH]4)cc3)nc21 | < 10

What follows are compounds tested on K562 (assay: Antitumor activity against human K562 cells assessed as cell growth inhibition at 10 uM incubated for 48 hrs by sulforhodamine B assay). Conditions: read-out: GI.
Format: functional

Compound | inhibition of growth at 10 µM [%]
O=C1c2ccccc2C(=O)c2c1ccc1[nH]c(-c3ccc(-c4nc5c6ccccc6c6ccccc6c5[nH]4)cc3)nc21 | < 10

Each compound was assayed on SK-OV-3 (assay: Antitumor activity against human SK-OV-3 cells assessed as cell growth inhibition at 10 uM incubated for 48 hrs by sulforhodamine B assay). Conditions: read-out: GI.
Format: functional

Compound | inhibition of growth at 10 µM [%]
O=C1c2ccccc2C(=O)c2c1ccc1[nH]c(-c3ccc(-c4nc5c6ccccc6c6ccccc6c5[nH]4)cc3)nc21 | < 10

These compounds were tested on MOLT-4 (assay: Antitumor activity against human MOLT4 cells assessed as cell growth inhibition at 10 uM incubated for 48 hrs by sulforhodamine B assay). Conditions: read-out: GI.
Format: functional

Compound | inhibition of growth at 10 µM [%]
O=C1c2ccccc2C(=O)c2c1ccc1[nH]c(-c3ccc(-c4nc5c6ccccc6c6ccccc6c5[nH]4)cc3)nc21 | 12.4

The compounds below were run on SF-268 (assay: Antitumor activity against human SF268 cells assessed as cell growth inhibition at 10 uM incubated for 48 hrs by sulforhodamine B assay). Conditions: read-out: GI.
Format: functional

Compound | inhibition of growth at 10 µM [%]
O=C1c2ccccc2C(=O)c2c1ccc1[nH]c(-c3ccc(-c4nc5c6ccccc6c6ccccc6c5[nH]4)cc3)nc21 | < 10

These compounds were tested on SK-MEL-28 (assay: Antitumor activity against human SK-MEL-28 cells assessed as cell growth inhibition at 10 uM incubated for 48 hrs by sulforhodamine B assay). Conditions: read-out: GI.
Format: functional

Compound | inhibition of growth at 10 µM [%]
O=C1c2ccccc2C(=O)c2c1ccc1[nH]c(-c3ccc(-c4nc5c6ccccc6c6ccccc6c5[nH]4)cc3)nc21 | < 10

Each compound was assayed on SF-295 (assay: Antitumor activity against human SF295 cells assessed as cell growth inhibition at 10 uM incubated for 48 hrs by sulforhodamine B assay). Conditions: read-out: GI.
Format: functional

Compound | inhibition of growth at 10 µM [%]
O=C1c2ccccc2C(=O)c2c1ccc1[nH]c(-c3ccc(-c4nc5c6ccccc6c6ccccc6c5[nH]4)cc3)nc21 | < 10

These compounds were tested on NCI-H522 (assay: Antitumor activity against human NCI-H522 cells assessed as cell growth inhibition at 10 uM incubated for 48 hrs by sulforhodamine B assay). Conditions: read-out: GI.
Format: functional

Compound | inhibition of growth at 10 µM [%]
O=C1c2ccccc2C(=O)c2c1ccc1[nH]c(-c3ccc(-c4nc5c6ccccc6c6ccccc6c5[nH]4)cc3)nc21 | < 10

These compounds were tested on HCC 2998 (assay: Antitumor activity against human HCC2998 cells assessed as cell growth inhibition at 10 uM incubated for 48 hrs by sulforhodamine B assay). Conditions: read-out: GI.
Format: functional

Compound | inhibition of growth at 10 µM [%]
O=C1c2ccccc2C(=O)c2c1ccc1[nH]c(-c3ccc(-c4nc5c6ccccc6c6ccccc6c5[nH]4)cc3)nc21 | < 10

These compounds were tested on SR (assay: Antitumor activity against human SR cells assessed as cell growth inhibition at 10 uM incubated for 48 hrs by sulforhodamine B assay). Conditions: read-out: GI.
Format: functional

Compound | inhibition of growth at 10 µM [%]
O=C1c2ccccc2C(=O)c2c1ccc1[nH]c(-c3ccc(-c4nc5c6ccccc6c6ccccc6c5[nH]4)cc3)nc21 | 11.4

Each compound was assayed on KM12 (assay: Antitumor activity against human KM12 cells assessed as cell growth inhibition at 10 uM incubated for 48 hrs by sulforhodamine B assay). Conditions: read-out: GI.
Format: functional

Compound | inhibition of growth at 10 µM [%]
O=C1c2ccccc2C(=O)c2c1ccc1[nH]c(-c3ccc(-c4nc5c6ccccc6c6ccccc6c5[nH]4)cc3)nc21 | < 10

What follows are compounds tested on LOX IMVI (assay: Antitumor activity against human LOX IMVI cells assessed as cell growth inhibition at 10 uM incubated for 48 hrs by sulforhodamine B assay). Conditions: read-out: GI.
Format: functional

Compound | inhibition of growth at 10 µM [%]
O=C1c2ccccc2C(=O)c2c1ccc1[nH]c(-c3ccc(-c4nc5c6ccccc6c6ccccc6c5[nH]4)cc3)nc21 | < 10

What follows are compounds tested on RPMI-8226 (assay: Antitumor activity against human RPMI8226 cells assessed as cell growth inhibition at 10 uM incubated for 48 hrs by sulforhodamine B assay). Conditions: read-out: GI.
Format: functional

Compound | inhibition of growth at 10 µM [%]
O=C1c2ccccc2C(=O)c2c1ccc1[nH]c(-c3ccc(-c4nc5c6ccccc6c6ccccc6c5[nH]4)cc3)nc21 | 10.4

Each compound was assayed on MDA-MB-435 (assay: Antitumor activity against human MDA-MB-435 cells assessed as cell growth inhibition at 10 uM incubated for 48 hrs by sulforhodamine B assay). Conditions: read-out: GI.
Format: functional

Compound | inhibition of growth at 10 µM [%]
O=C1c2ccccc2C(=O)c2c1ccc1[nH]c(-c3ccc(-c4nc5c6ccccc6c6ccccc6c5[nH]4)cc3)nc21 | < 10

The compounds below were run on MCF7 (assay: Antitumor activity against human MCF7 cells assessed as cell growth inhibition at 10 uM incubated for 48 hrs by sulforhodamine B assay). Conditions: read-out: GI.
Format: functional

Compound | inhibition of growth at 10 µM [%]
O=C1c2ccccc2C(=O)c2c1ccc1[nH]c(-c3ccc(-c4nc5c6ccccc6c6ccccc6c5[nH]4)cc3)nc21 | < 10
